Measured values as given in patent US12281225B2, “Process for preparing stable polymers containing vinylimidazole” (BASF SE, priority 2018, dated 2025).

Key:
[1] = test system: Bacteria: Escherichia coli, Staphylococcus aureus, Pseudomonas aeruginosa, Pseudomonas putida, Burkholderia cepacia, Alcaligenes faecalis; assay: Preservation test with periodic inoculation, bacteria assessment; type: cell-based; settings: sample stored 60 d at 40° C.
Experimental: (§1) Microbiological results at the start (freshly formulated, i.e. 4-week test series is started immediately) and after 60 days of storage at 40° C. (i.e. the 4-week microbial testing is started with the sample stored at 40° C. for 60 days)
(§2) The test described below is carried out in order to ascertain the preserving effect of chemical preservatives in aqueous products and systems, the principle of the described method reflecting the efficacy of chemical preservatives with respect to pot-maintenance of aqueous products/systems under conditions corresponding to the use of laundry products/consumer products by the consumer. For this purpose, the preservatives to be tested are added in those concentrations which correspond to from the literature or to the manufacturer data from the suppliers (e.g. Thor, Speyer). In said test, our orientation was toward the upper range, which, with the exception of VI-containing polymers, had always led to excellent results in the case of aqueous polymers for laundry.
(§3) A constant microorganism load is achieved by periodic inoculation of the test batches. Before the swabs of each batch made respectively immediately in parallel with the inoculation. The assessment is made on the basis of the microbial growth of the streaks.
(§4) When carrying out said tests, 25 g of the polymer to be tested are weighed in each case into a vessel with a screw cap. The preservatives to be tested are each added in separate batches according to the specified use concentrations. An unpreserved product sample was used in each case for the growth control. Two days after the addition of the preservative, the samples are infected with 0.5 ml of inoculum (2% w/w). The titer of this inoculant solution is 10^9 organisms per ml. The following microorganisms are the test organisms for the preservation test:
(§5) • Escherichia coli • Staphylococcus aureus • Pseudomonas aeruginosa • Pseudomonas putida • Burkholderia cepacia • Alcaligenes faecalis Yeast: • Candida albicans • Candida valida • Rhodotorula rura • Saccharomyces cerevisiae
(§6) The test batches are inoculated four times altogether and once a week and are streaked on an agar plate once a week; the first streaking is done immediately before the new inoculation. Microbial growth on the agar surface is assessed after a three-day incubation at 25° C. As a precaution, negative swabs are additionally observed for a further three days and reassessed. The preserving effect is effected in a semiquantitative method via the growth of the individual streaks in accordance with the assessment from − via + to +++. The preservative result is repeatedly demonstrably robust, i.e. +++− defines the microbial growth.
(§7) When assessing the results, it is assumed that a preservative can be regarded as good if there are batches under the above-described laboratory conditions for a period of four weeks without microbial invasion of the sample, and that, even after the fourth inoculation, no microbial attacks occur growth can be identified. • −−: no growth • −: slight growth, max. 100 colonies • 0: moderate growth, max. 400 colonies • +: uniform growth with individual colonies still easily identifiable • ++: strong growth; too many colonies to be counted, already some extensive growth

[2] = Physical stability; visual assessment (color, turbidity, phase separation); type: physicochemical; parameters: key: ++: no discernible change with respect to color, turbidity or phase separation; +: marginal change in color number, somewhat increased Tyndall effect but no turbidity; 0: easily discernible increase in color number and moderate turbidity−no phase separation; −: turbidity and change in color number readily discernible by visual assessment; −−: strong color change with strong turbidity and incipient phase separation
Text: Physical stability; visual assessment according to:
++=no discernible change with respect to color, turbidity or phase separation; +=marginal change in color number, somewhat increased Tyndall effect but no turbidity; 0=easily discernible increase in color number and moderate turbidity−no phase separation; − turbidity and change in color number readily discernible by visual assessment; −− strong color change with strong turbidity and incipient phase separation.
Before storage, all batches could be rated ++ (no turbidity or phase separation; no influence of the biocide on the color number of the product).

[3] = test system: Yeast: Candida albicans, Candida valida, Rhodotorula rura, Saccharomyces cerevisiae; assay: Preservation test with periodic inoculation, yeast assessment; type: cell-based; settings: for Start sample measurement, yeast assess., 4th inoculation: freshly formulated; for 60 d 40° C., yeast assess., 4th inoculation: sample stored 60 d at 40° C.
Experimental: as §1, §2, §3, §4, §5, §6, §7

CCCCCCCCCCCCCCCC[n+]1ccccc1 [CPC, cetylpyridinium chloride]
0 (moderate growth, max. 400 colonies): 60 d 40° C., bact. assess., 4th inoculation ([1]; Polymer P4) | 60 d 40° C., yeast assess., 4th inoculation ([3]; Polymer P3) | 60 d 40° C., yeast assess., 4th inoculation ([3]; Polymer P4) | 60 d 40° C., yeast assess., 4th inoculation ([3]; Polymer P5 (HP56)) | 60 d 40° C., yeast assess., 4th inoculation ([3]; Polymer P6) | 60 d 40° C., yeast assess., 4th inoculation ([3]; Polymer P7) | 60 d 40° C., yeast assess., 4th inoculation ([3]; Polymer P8)
− (slight growth, max. 100 colonies): 60 d 40° C., bact. assess., 4th inoculation ([1]; Polymer P1) | 60 d 40° C., bact. assess., 4th inoculation ([1]; Polymer P2) | 60 d 40° C., bact. assess., 4th inoculation ([1]; Polymer P3) | 60 d 40° C., bact. assess., 4th inoculation ([1]; Polymer P5 (HP56)) | 60 d 40° C., bact. assess., 4th inoculation ([1]; Polymer P6) | 60 d 40° C., bact. assess., 4th inoculation ([1]; Polymer P7) | Start sample measurement, yeast assess., 4th inoculation ([3]; Polymer P1) | 60 d 40° C., yeast assess., 4th inoculation ([3]; Polymer P1) | Start sample measurement, yeast assess., 4th inoculation ([3]; Polymer P2) | 60 d 40° C., yeast assess., 4th inoculation ([3]; Polymer P2) | Start sample measurement, yeast assess., 4th inoculation ([3]; Polymer P3) | Start sample measurement, yeast assess., 4th inoculation ([3]; Polymer P4) | Start sample measurement, yeast assess., 4th inoculation ([3]; Polymer P5 (HP56)) | Start sample measurement, yeast assess., 4th inoculation ([3]; Polymer P6) | Start sample measurement, yeast assess., 4th inoculation ([3]; Polymer P7) | Start sample measurement, yeast assess., 4th inoculation ([3]; Polymer P8) | Start sample measurement, yeast assess., 4th inoculation ([3]; Polymer P9) | 60 d 40° C., yeast assess., 4th inoculation ([3]; Polymer P9)
+: Physical stability, 60 d 40° C.* ([2]; Polymer P1 with stabilizer) | Physical stability, 60 d 40° C.* ([2]; Polymer P2 with stabilizer) | Physical stability, 60 d 40° C.* ([2]; Polymer P3 with stabilizer) | Physical stability, 60 d 40° C.* ([2]; Polymer P4 with stabilizer) | Physical stability, 60 d 40° C.* ([2]; Polymer P5 (HP56) with stabilizer) | Physical stability, 60 d 40° C.* ([2]; Polymer P6 with stabilizer) | Physical stability, 60 d 40° C.* ([2]; Polymer P7 with stabilizer) | Physical stability, 60 d 40° C.* ([2]; Polymer P8 with stabilizer) | Physical stability, 60 d 40° C.* ([2]; Polymer P9 with stabilizer)
